From patent publication US4547517A, “Microbicidal N-sulphenylated hydantoins” (Bayer Aktiengesellschaft, priority 1983, dated 1985)
≈ marks a conversion by molar mass, not a printed value.

How the values were obtained:
slime organisms = assay: Action against slime organisms, MIC in Allens nutrient solution (Example 28); type: cell-based; conditions: 504 h, room temperature, 3 weeks
Protocol: The compounds according to Examples 3, 5 and 10 are each used, dissolved in a little acetone, in concentrations of 0.1 to 100 mg/liter in Allens nutrient solution (Arch. Mikrobiol. 17, 34-53 (1952)), which contains, in 4 liters of sterile water, 0.2 g of ammonium chloride, 4.0 g of sodium nitrate, 1.0 g of dipotassium hydrogen phosphate, 0.2 g of calcium chloride, 2.05 g of magnesium sulphate, 0.02 g of iron chloride and 1% of caprolactam. Shortly beforehand, the nutrient solution is infected with slime organisms (about 10^6 germs/ml), which have been isolated from spinning water circulations used in the manufacture of polyamide. Nutrient solutions which contain the minimum inhibitory concentration (MIC) or higher concentrations of active compound are still completely clear after culture at room temperature for 3 weeks, that is to say the marked multiplication of the microbes and formation of slime noticeable after 3 to 4 days in nutrient solutions containing no active compound are absent.

Lentinus tigrinus = assay: MIC against fungi in beer wort/peptone agar (Example 26); type: cell-based; conditions: 336 h, 28° C., 2 weeks
Protocol: (§1) Active compounds according to the invention are added in concentration of 0.1 mg/liter to 5,000 mg/liter to an agar prepared from beer wort and peptone. After storage at 28° C. and 60 to 70% relative atmospheric humidity for 2 weeks, the MIC is determined. The MIC is the lowest concentration of active compound at which no growth at all of the species of microbe used takes place; it is shown in the Table which follows.

Aureobasidium pullulans = assay: as above; type: cell-based; conditions: 336 h, 28° C., 2 weeks
Protocol: as §1

Coniophora cerebella = assay: as above; type: cell-based; conditions: 336 h, 28° C., 2 weeks
Protocol: as §1

Penicillium glaucum = assay: as above; type: cell-based; conditions: 336 h, 28° C., 2 weeks
Protocol: as §1

Aspergillus niger = assay: as above; type: cell-based; conditions: 336 h, 28° C., 2 weeks
Protocol: as §1

Chaetomium globosum = assay: as above; type: cell-based; conditions: 336 h, 28° C., 2 weeks
Protocol: as §1

Alternaria tenuis = assay: as above; type: cell-based; conditions: Alternaria alternata, 336 h, 28° C., 2 weeks
Protocol: as §1

Polyporus versicolor = assay: as above; type: cell-based; conditions: Trametes versicolor, 336 h, 28° C., 2 weeks
Protocol: as §1

Sclerophoma pityophila = assay: as above; type: cell-based; conditions: Sydowia polyspora, 336 h, 28° C., 2 weeks
Protocol: as §1

Staphylococcus aureus = assay: Action against bacteria, MIC in bouillon agar (Example 27); type: cell-based; conditions: 336 h, 28° C., 2 weeks
Protocol: The active compounds listed in Table II are added in concentrations of 1 to 5000 ppm to an agar containing bouillon as the nutrient medium. The nutrient medium is then infected with Staphylococcus aureus and the infected medium is kept at 28° C. and 60 to 70% relative atmospheric humidity for 2 weeks. The MIC is the lowest concentration of active compound at which no growth at all of the species of microbe used takes place.

Fusarium nivale = Fusarium nivale test (rye)/seed treatment (Example 30); type: in vivo, Fusarium nivale (on rye); conditions: seed treatment, 500 mg/kg of seed, about 3 weeks after sowing, not dressed 12.8
Protocol: The active compounds are used as dry dressings. These are prepared by extending the particular active compound with a ground mineral to give a finely pulverulent mixture, which ensures uniform distribution on the seed surface. To apply the dressing, the infected seed is shaken with the dressing in a closed glass flask for 3 minutes. 2 batches of 100 grains of the rye are sown 1 cm deep in standard soil and are cultivated in a greenhouse at a temperature of about 10° C. and a relative atmospheric humidity of about 95%, in seedboxes which are exposed to light for 15 hours daily. About 3 weeks after sowing, the plants are evaluated for symptoms of snow mould.

Pyricularia oryzae = type: in vivo, Pyricularia oryzae (on rice); conditions: rice, protective; active compound concentration 0.025 %; 4 days after inoculation
[1] = system: Erysiphe graminis f.sp. hordei; assay: Erysiphe test (barley)/protective (Example 29); type: in vivo, Erysiphe graminis f.sp. hordei (on barley); conditions: protective, active compound concentration in spray liquor 0.025 % by weight, 7 days after inoculation
Protocol: Solvent: 100 parts by weight of dimethylformamide Emulsifier: 0.25 part by weight of alkylaryl polyglycol ether To produce a suitable preparation of active compound, 1 part by weight of active compound is mixed with the stated amounts of solvent and emulsifier, and the concentrate is diluted with water to the desired concentration. To test for protective activity, young plants are sprayed with the preparation of active compound until dew-moist. After the spray coating has dried on, the plants are dusted with spores of Erysiphe graminis f.sp. hordei. The plants are placed in a greenhouse at a temperature of about 20° C. and a relative atmospheric humidity of about 80%, in order to promote the development of powdery mildew pustules. Evaluation is carried out 7 days after the inoculation.

## CN1C(=O)N(SC(F)(Cl)Cl)C(C)(C)C1=O [Example 3]
Slime organisms
  MIC: 3 µg/mL (≈ 10.9 µM)
Lentinus tigrinus
  MIC: 1 µg/mL (≈ 3.63 µM)
Aureobasidium pullulans
  MIC: 1 µg/mL (≈ 3.63 µM)
Coniophora cerebella
  MIC: 1 µg/mL (≈ 3.63 µM)
Penicillium glaucum
  MIC: 50 µg/mL (≈ 182 µM)
Aspergillus niger
  MIC: 10 µg/mL (≈ 36.3 µM)
Chaetomium globosum
  MIC: 1.5 µg/mL (≈ 5.45 µM)
Alternaria tenuis
  MIC: 1.5 µg/mL (≈ 5.45 µM)
Polyporus versicolor
  MIC: 7.5 µg/mL (≈ 27.3 µM)
Sclerophoma pityophila
  MIC: 5 µg/mL (≈ 18.2 µM)
Staphylococcus aureus
  MIC: 50 µg/mL (≈ 182 µM)

## CN1C(=O)CN(SC(F)(Cl)Cl)C1=O
Fusarium nivale
  Diseased plants in % of the total plants emerged: 0.0 % of the total plants emerged

## O=C1C2CC=CCC2C(=O)N1SC(Cl)(Cl)Cl (stereo not drawn) [drawing 19, reference compound]
Pyricularia oryzae
  Disease infestation in % of the untreated control: 50 % of the untreated control

## O=C1C2CC=CCC2C(=O)N1SC(Cl)(Cl)Cl (stereo not drawn) [Captan, reference compound]
[1]
  Disease infestation in % of the untreated control: 100 % of the untreated control
Fusarium nivale
  Diseased plants in % of the total plants emerged: 5.4 % of the total plants emerged

## O=C1CN(SC(F)(Cl)Cl)C(=O)N1C1CCCCC1 [drawing 16]
[1]
  Disease infestation in % of the untreated control: 0.0 % of the untreated control

## O=C1CN(SC(F)(Cl)Cl)C(=O)N1C1CCCCC1 [drawing 20]
Pyricularia oryzae
  Disease infestation in % of the untreated control: 13 % of the untreated control

## CCCCN1C(=O)CN(SC(F)(Cl)Cl)C1=O [Example 5]
Slime organisms
  MIC: 5 µg/mL (≈ 17.3 µM)
Lentinus tigrinus
  MIC: 0.75 µg/mL (≈ 2.59 µM)
Aureobasidium pullulans
  MIC: 2 µg/mL (≈ 6.92 µM)
Coniophora cerebella
  MIC: 0.75 µg/mL (≈ 2.59 µM)
Penicillium glaucum
  MIC: 100 µg/mL (≈ 346 µM)
Aspergillus niger
  MIC: 50 µg/mL (≈ 173 µM)
Chaetomium globosum
  MIC: 3.5 µg/mL (≈ 12.1 µM)
Alternaria tenuis
  MIC: 2 µg/mL (≈ 6.92 µM)
Polyporus versicolor
  MIC: 15 µg/mL (≈ 51.9 µM)
Sclerophoma pityophila
  MIC: 5 µg/mL (≈ 17.3 µM)
Staphylococcus aureus
  MIC: 100 µg/mL (≈ 346 µM)

## CC1(C)C(=O)N(C2CCCCC2)C(=O)N1SC(F)(Cl)Cl [Example 10]
Slime organisms
  MIC: 100 µg/mL (≈ 291 µM)
Lentinus tigrinus
  MIC: 0.75 µg/mL (≈ 2.18 µM)
Aureobasidium pullulans
  MIC: 3.5 µg/mL (≈ 10.2 µM)
Coniophora cerebella
  MIC: 0.75 µg/mL (≈ 2.18 µM)
Penicillium glaucum
  MIC: 75 µg/mL (≈ 218 µM)
Aspergillus niger
  MIC: 20 µg/mL (≈ 58.3 µM)
Chaetomium globosum
  MIC: 1.5 µg/mL (≈ 4.37 µM)
Alternaria tenuis
  MIC: 3.5 µg/mL (≈ 10.2 µM)
Polyporus versicolor
  MIC: 15 µg/mL (≈ 43.7 µM)
Sclerophoma pityophila
  MIC: 5 µg/mL (≈ 14.6 µM)
Staphylococcus aureus
  MIC: 50 µg/mL (≈ 146 µM)
